Patent US9796711B2, “Substituted pyrazolo[3,4-b]pyridin-6-carboxylic acids and method of use” (AbbVie S.àr.l., priority 2015, dated 2017)

Columns and labels:
ΔF508-CFTR [1] = target: T1, ΔF508-CFTR (Homo sapiens, UniProt P13569, DEL508-508); test: CFTR cell surface levels using HRP-tagged ΔF508-CFTR expressing CFBE cells, intrinsic corrector capacity; format: cell-based
T1 construct: host or cells: CFBE41o-, doxycycline-inducible
How it was run: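 Here the cells express ΔF508-CFTR with horseradish peroxidase inserted in extracellular loop 4, so only rescued channel at the surface gives luminescent signal. Compounds act on their own, 20 h at the reduced temperature of 33 °C; values are percent activity relative to DMSO and a 3 μM corrector.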

ΔF508-CFTR [2] = target: T1, ΔF508-CFTR; test: CFTR cell surface levels using HRP-tagged ΔF508-CFTR expressing CFBE cells, in the presence of a co-corrector; format: cell-based
How it was run: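 Cells were seeded with 0.5 μg/mL doxycycline and held 68 h at 37 °C. Test compounds plus 3 μM co-corrector (final 0.1% DMSO) were then added for 20 h at 33 °C. Washed cells received HRP substrate, and luminescence was normalized between DMSO and 3 μM co-corrector controls.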

[3] = HRP-tagged ΔF508-CFTR expressing CFBE cells, intrinsic corrector capacity (no co-corrector), 33° C., 20 hours
[4] = HRP-tagged ΔF508-CFTR expressing CFBE cells, intrinsic corrector capacity (no co-corrector), 33° C., 20 hours, read-out: EC50
[5] = HRP-tagged ΔF508-CFTR expressing CFBE cells, in the presence of 3 μM co-corrector
[6] = HRP-tagged ΔF508-CFTR expressing CFBE cells, in the presence of 3 μM co-corrector, read-out: EC50

T1 sequence (P13569 with tags, fused parts or gaps DEL508-508): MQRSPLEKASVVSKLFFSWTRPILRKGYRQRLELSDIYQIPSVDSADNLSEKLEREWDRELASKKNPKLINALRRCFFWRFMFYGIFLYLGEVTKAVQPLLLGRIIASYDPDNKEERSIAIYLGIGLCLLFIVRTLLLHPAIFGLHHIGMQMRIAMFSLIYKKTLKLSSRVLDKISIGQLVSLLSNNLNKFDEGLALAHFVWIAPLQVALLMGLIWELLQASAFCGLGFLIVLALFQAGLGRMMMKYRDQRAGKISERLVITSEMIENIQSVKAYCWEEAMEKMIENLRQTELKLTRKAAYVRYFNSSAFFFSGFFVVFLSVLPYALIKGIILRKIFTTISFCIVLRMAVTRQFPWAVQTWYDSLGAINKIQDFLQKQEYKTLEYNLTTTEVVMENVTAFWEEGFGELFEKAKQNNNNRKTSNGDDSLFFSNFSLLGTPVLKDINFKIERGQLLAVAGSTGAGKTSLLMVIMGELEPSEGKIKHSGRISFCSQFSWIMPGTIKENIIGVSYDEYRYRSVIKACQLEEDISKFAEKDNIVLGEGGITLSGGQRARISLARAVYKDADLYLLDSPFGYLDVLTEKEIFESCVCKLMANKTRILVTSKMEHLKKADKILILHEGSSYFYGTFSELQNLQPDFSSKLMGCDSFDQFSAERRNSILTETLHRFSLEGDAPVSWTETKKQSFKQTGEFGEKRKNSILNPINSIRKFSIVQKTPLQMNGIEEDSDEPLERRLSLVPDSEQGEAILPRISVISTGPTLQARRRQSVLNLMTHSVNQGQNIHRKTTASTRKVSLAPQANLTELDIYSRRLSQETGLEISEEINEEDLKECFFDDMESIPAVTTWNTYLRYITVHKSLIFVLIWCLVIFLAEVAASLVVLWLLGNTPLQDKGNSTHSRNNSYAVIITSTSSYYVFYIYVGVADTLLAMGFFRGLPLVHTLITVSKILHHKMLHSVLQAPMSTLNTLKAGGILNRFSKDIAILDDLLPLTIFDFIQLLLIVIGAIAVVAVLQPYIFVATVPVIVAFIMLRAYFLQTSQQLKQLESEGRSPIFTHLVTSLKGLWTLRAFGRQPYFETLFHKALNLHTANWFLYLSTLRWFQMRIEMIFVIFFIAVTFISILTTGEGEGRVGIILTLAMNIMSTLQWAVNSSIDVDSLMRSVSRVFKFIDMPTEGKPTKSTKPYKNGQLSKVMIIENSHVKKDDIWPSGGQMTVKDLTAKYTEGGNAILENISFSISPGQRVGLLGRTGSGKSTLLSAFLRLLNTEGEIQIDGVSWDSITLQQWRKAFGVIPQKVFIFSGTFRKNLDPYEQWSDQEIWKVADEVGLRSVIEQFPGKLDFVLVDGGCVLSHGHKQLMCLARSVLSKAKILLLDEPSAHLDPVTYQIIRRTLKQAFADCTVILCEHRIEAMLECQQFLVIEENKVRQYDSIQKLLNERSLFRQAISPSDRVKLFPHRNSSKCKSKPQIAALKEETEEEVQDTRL

| Compound | % Activation (ΔF508-CFTR [1]; [3]) [%] | EC50 (ΔF508-CFTR [1]; [4]) [µM] | % Activation (ΔF508-CFTR [2]; [5]) [%] | EC50 (ΔF508-CFTR [2]; [6]) [µM] | EC50 (ΔF508-CFTR [1]) [µM] | % Activation (ΔF508-CFTR [1]; HRP-tagged ΔF508-CFTR CFBE41o- cells, compounds alone (intrinsic corrector capacity), 20 hours at 33° C., positive control 3 μM corrector) [%] | EC50 (ΔF508-CFTR [2]) [µM] |
| --- | --- | --- | --- | --- | --- | --- | --- |
| O=C(O)c1cc(N2CCC(CN3CCCCC3)CC2)c2c(C3CCC3)nn(-c3ccccc3)c2n1 [compound 686, 3-cyclobutyl-1-phenyl-4-{4-[(piperidin-1-yl)methyl]piperidin-1-yl}-1H-pyrazolo[3,4-b]pyridine-6-carboxylic acid] | 240.4 | 1.67 | 431.1 | 0.237 |  |  |  |
| CC1CN(C2CCN(c3cc(C(=O)O)nc4c3c(C3CCC3)nn4-c3ccccc3)CC2)CC(C)O1 (centres unmarked) [compound 688, 3-cyclobutyl-4-[4-(2,6-dimethylmorpholin-4-yl)piperidin-1-yl]-1-phenyl-1H-pyrazolo[3,4-b]pyridine-6-carboxylic acid] | 322.5 | 0.247 | 532.6 | 0.247 |  |  |  |
| CCN(CC)C1CCN(c2cc(C(=O)O)nc3c2c(C2CCC2)nn3-c2ccccc2)CC1 [compound 689, 3-cyclobutyl-4-[4-(diethylamino)piperidin-1-yl]-1-phenyl-1H-pyrazolo[3,4-b]pyridine-6-carboxylic acid] | 182.7 | 1.57 | 329 | 0.803 |  |  |  |
| CN(CCCN(C)C1CCCCC1)c1cc(C(=O)O)nc2c1c(C1CCC1)nn2-c1ccccc1 [compound 690, 3-cyclobutyl-4-[{3-[cyclohexyl(methyl)amino]propyl}(methyl)amino]-1-phenyl-1H-pyrazolo[3,4-b]pyridine-6-carboxylic acid] | 136.1 | 1.67 | 318.25 | 2.76 |  |  |  |
| CC(C)CN1C[C@@H]2CN(c3cc(C(=O)O)nc4c3c(C3CCC3)nn4-c3ccccc3)C[C@@H]2C1 [compound 692, 3-cyclobutyl-4-[(3aR,6aS)-5-(2-methylpropyl)hexahydropyrrolo[3,4-c]pyrrol-2(1H)-yl]-1-phenyl-1H-pyrazolo[3,4-b]pyridine-6-carboxylic acid] | 208.1 | 1.67 | 381.4 | 0.931 |  |  |  |
| O=C(O)c1cc(N2CCC(N3CCCCC3)CC2)c2c(C3CCC3)nn(-c3ccc(F)cc3)c2n1 [compound 693, 4-([1,4′-bipiperidin]-1′-yl)-3-cyclobutyl-1-(4-fluorophenyl)-1H-pyrazolo[3,4-b]pyridine-6-carboxylic acid] | 185.9 | 1.27 | 392.45 | 0.325 |  |  |  |
| COCCN1CCN(C2CCN(c3cc(C(=O)O)nc4c3c(C3CCC3)nn4-c3ccccc3)CC2)CC1 [compound 694, 3-cyclobutyl-4-{4-[4-(2-methoxyethyl)piperazin-1-yl]piperidin-1-yl}-1-phenyl-1H-pyrazolo[3,4-b]pyridine-6-carboxylic acid] | 177.4 | 0.487 | 421.9 | 0.535 |  |  |  |
| CCOCCN1CCN(C2CCN(c3cc(C(=O)O)nc4c3c(C(C)C)nn4-c3ccc(F)cc3)CC2)CC1 [compound 745, 4-{4-[4-(2-ethoxyethyl)piperazin-1-yl]piperidin-1-yl}-1-(4-fluorophenyl)-3-(propan-2-yl)-1H-pyrazolo[3,4-b]pyridine-6-carboxylic acid] | 239.3 | 0.573 | 457.5 | 0.191 |  |  |  |
| CC(C)c1nn(-c2ccc(F)cc2)c2nc(C(=O)O)cc(N3CCC(N4CCN(C)CC4)CC3)c12 [compound 753, 1-(4-fluorophenyl)-4-[4-(4-methylpiperazin-1-yl)piperidin-1-yl]-3-(propan-2-yl)-1H-pyrazolo[3,4-b]pyridine-6-carboxylic acid] | 215 | 1.03 | 377.6 | 0.301 |  |  |  |
| CN1CCN(C2CCN(c3cc(C(=O)O)nc4c3c(C3CCC3)nn4-c3ccccc3)CC2)CC1 [compound 757, 3-cyclobutyl-4-[4-(4-methylpiperazin-1-yl)piperidin-1-yl]-1-phenyl-1H-pyrazolo[3,4-b]pyridine-6-carboxylic acid] | 208.45 | 0.319 | 489.6 | 0.402 |  |  |  |
| Cc1c(C(=O)O)nc2c(c(C(C)C)nn2-c2ccc(F)cc2)c1N1CCC(N2CCOCC2)CC1 [compound 763, 1-(4-fluorophenyl)-5-methyl-4-[4-(morpholin-4-yl)piperidin-1-yl]-3-(propan-2-yl)-1H-pyrazolo[3,4-b]pyridine-6-carboxylic acid] |  |  | 276.3 |  | 1.63 | 161.25 | 1.67 |
| CC(C)Oc1nn(C2CCCCC2)c2nc(C(=O)O)cc(-c3ccc(C(=O)N4CCN(C)CC4)cc3)c12 [compound 764, 1-cyclohexyl-4-[4-(4-methylpiperazine-1-carbonyl)phenyl]-3-[(propan-2-yl)oxy]-1H-pyrazolo[3,4-b]pyridine-6-carboxylic acid] | 85.92 | 3.33 | 255.65 | 2.41 |  |  |  |
| CC(C)c1nn(-c2ccc(F)cc2)c2nc(C(=O)O)cc(N3CC(N4CCOCC4)C3)c12 [compound 765, 1-(4-fluorophenyl)-4-[3-(morpholin-4-yl)azetidin-1-yl]-3-(propan-2-yl)-1H-pyrazolo[3,4-b]pyridine-6-carboxylic acid] | 45.48 | 1.67 | 181.3 | 0.738 |  |  |  |
| CCCN1CCCN(c2cc(C(=O)O)nc3c2c(C(C)C)nn3-c2ccc(F)cc2)CC1 [compound 766, 1-(4-fluorophenyl)-3-(propan-2-yl)-4-(4-propyl-1,4-diazepan-1-yl)-1H-pyrazolo[3,4-b]pyridine-6-carboxylic acid] | 54.3 | 1.67 | 213.4 | 1.18 |  |  |  |
| CC(C)c1nn(-c2ccc(F)cc2)c2nc(C(=O)O)cc(N3CCCN(C4CCC4)CC3)c12 [compound 767, 4-(4-cyclobutyl-1,4-diazepan-1-yl)-1-(4-fluorophenyl)-3-(propan-2-yl)-1H-pyrazolo[3,4-b]pyridine-6-carboxylic acid] | 59.96 | 1.67 | 210.1 | 1.67 |  |  |  |
| CCCCN1CCCN(c2cc(C(=O)O)nc3c2c(C(C)C)nn3-c2ccc(F)cc2)CC1 [compound 768, 4-(4-butyl-1,4-diazepan-1-yl)-1-(4-fluorophenyl)-3-(propan-2-yl)-1H-pyrazolo[3,4-b]pyridine-6-carboxylic acid] | 79.69 | 1.58 | 256.5 | 1.67 |  |  |  |
| CC(C)c1nn(-c2ccc(F)cc2)c2nc(C(=O)O)cc(N3CCCN(C)CC3)c12 [compound 769, 1-(4-fluorophenyl)-4-(4-methyl-1,4-diazepan-1-yl)-3-(propan-2-yl)-1H-pyrazolo[3,4-b]pyridine-6-carboxylic acid] | 19.25 | 5 | 157.2 | 1.58 |  |  |  |
| CC(C)c1nn(-c2ccc(F)cc2)c2nc(C(=O)O)cc(N3CCN4CCC[C@@H]4C3)c12 [compound 770, 1-(4-fluorophenyl)-4-[(8aR)-hexahydropyrrolo[1,2-a]pyrazin-2(1H)-yl]-3-(propan-2-yl)-1H-pyrazolo[3,4-b]pyridine-6-carboxylic acid] | 85.33 | 1.67 | 234.5 | 0.9 |  |  |  |
| CC(=O)N1CCN(c2cc(C(=O)O)nc3c2c(C(C)C)nn3-c2ccc(F)cc2)CC1 [compound 771, 4-(4-acetylpiperazin-1-yl)-1-(4-fluorophenyl)-3-(propan-2-yl)-1H-pyrazolo[3,4-b]pyridine-6-carboxylic acid] | 94.91 | 1.67 | 290.8 | 1.67 |  |  |  |
| CCN1CCN(c2cc(C(=O)O)nc3c2c(C(C)C)nn3-c2ccc(F)cc2)CC1 [compound 772, 4-(4-ethylpiperazin-1-yl)-1-(4-fluorophenyl)-3-(propan-2-yl)-1H-pyrazolo[3,4-b]pyridine-6-carboxylic acid] | 53.82 | 1.67 | 226.6 | 1.36 |  |  |  |
| CC(C)c1nn(-c2ccc(F)cc2)c2nc(C(=O)O)cc(N3CCN(CCO)CC3)c12 [compound 773, 1-(4-fluorophenyl)-4-[4-(2-hydroxyethyl)piperazin-1-yl]-3-(propan-2-yl)-1H-pyrazolo[3,4-b]pyridine-6-carboxylic acid] | 16.13 | 5 | 141.8 | 5 |  |  |  |
| CC(C)c1nn(-c2ccc(F)cc2)c2nc(C(=O)O)cc(N3CCN(C(=O)N(C)C)CC3)c12 [compound 774, 4-[4-(dimethylcarbamoyl)piperazin-1-yl]-1-(4-fluorophenyl)-3-(propan-2-yl)-1H-pyrazolo[3,4-b]pyridine-6-carboxylic acid] | 163 | 1.67 | 375.6 | 1.67 |  |  |  |
| CCOCC(=O)N1CCN(c2cc(C(=O)O)nc3c2c(C(C)C)nn3-c2ccc(F)cc2)CC1 [compound 775, 4-[4-(ethoxyacetyl)piperazin-1-yl]-1-(4-fluorophenyl)-3-(propan-2-yl)-1H-pyrazolo[3,4-b]pyridine-6-carboxylic acid] | 93.07 | 1.67 | 262.4 | 1.67 |  |  |  |
